US8808702B2, “Sulfide, sulfoxide and sulfone chalcone analogues, derivatives thereof and therapeutic uses thereof” (Temple University-of the Commonwealth System of Higher …, priority 2006, dated 2014)
Where two headings read alike, the source gives them in different places.

How the values were obtained:
[1] = test system: K562 (chronic myelogenous leukaemia); assay: Effect of compounds on tumor cell lines (assay of Latham et al.), K562; type: cell-based; settings: K562 cells
Procedure, shortened: (§1)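 K562 or DU145 cells plated at 2.5×10^4 cells/well, treated 24 h later with compound in DMSO at 1 μM to 100 μM (0.1 μM to 100 μM for one compound). Activity judged by microscopic observation after 96 h; where needed, viable cells counted by trypan blue exclusion.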

[2] = test system: DU145 (prostate cancer); assay: Effect of compounds on tumor cell lines (assay of Latham et al.), DU145; type: cell-based; settings: DU145 cells, read-out: DU 145 potency (IC50)
Procedure, shortened: as §1

[3] = Homo sapiens, Table 4, examined 96 hours after treatment, 1 μM to 100 μM in DMSO, read-out: K 562 potency (IC50)
[4] = Homo sapiens, DU-145, Table 4, examined 96 hours after treatment, 1 μM to 100 μM in DMSO
[5] = 96 hours after treatment, 1 μM to 100 μM, read-out: K 562 potency (IC50)
[6] = 96 hours after treatment, 1 μM to 100 μM
[7] = Table 1, examined 96 hours after treatment, 1 μM to 100 μM in DMSO, read-out: K 562 potency (IC50)
[8] = Table 1, examined 96 hours after treatment, 1 μM to 100 μM in DMSO

IC50 [1, 5]	IC50 [2, 6]	SMILES	IC50 [1, 7]	IC50 [2, 8]	further results
–	–	COc1cc(OC)c(/C=C(\C(=O)c2ccc(Br)cc2)S(=O)(=O)Cc2ccc(F)cc2)c(OC)c1 [Example 399]	–	–	IC50 [1, 3]: 50 to 100 µM; IC50 [2, 4]: 50 to 100 µM; melting point: 176 to 182 °C
–	–	Cc1cc(C)cc(/C=C(\C(=O)c2ccc(Cl)cc2)S(=O)(=O)Cc2ccc(Cl)cc2)c1 [Example 385]	–	–	IC50 [1, 3]: 1 to 10 µM; IC50 [2, 4]: 1 to 10 µM; melting point: 146 to 152 °C
–	–	Cc1ccc(C)c(/C=C(\C(=O)c2ccc(Br)cc2)S(=O)(=O)Cc2ccc(F)cc2)c1 [Example 401]	–	–	IC50 [1, 3]: 1 to 10 µM; IC50 [2, 4]: 1 to 10 µM; melting point: 167 to 173 °C
–	–	COc1cc(OC)c(/C=C(\C(=O)c2ccc(Cl)cc2)S(=O)(=O)Cc2ccccc2Cl)c(OC)c1 [Example 357]	–	–	IC50 [1, 3]: 25 to 50 µM; IC50 [2, 4]: > 100 µM; melting point: 185 to 192 °C
–	–	O=C(/C(=C\c1ccc(I)cc1)S(=O)(=O)Cc1ccc(I)cc1)c1ccc(I)cc1 [Example 421, (E)-1-(4-iodophenyl)-2-(4-iodobenzylsulfonyl)-3-(4-iodophenyl)-prop-2-en-1-one]	–	–	IC50 ([1]; Homo sapiens, Table 4, examined 96 hours after treatment, 1 μM to 100 μM in DMSO, read-out: K 562 potency (IC50), given as number): > 50 µM; IC50 [2, 4]: 25 to 50 µM; melting point: 175 to 177 °C
–	–	O=C(/C(=C\c1c(O)cc(O)cc1O)S(=O)(=O)Cc1ccc(Cl)cc1)c1ccc(Cl)cc1 [Example 377]	–	–	IC50 [1, 3]: > 100 µM; IC50 [2, 4]: > 100 µM; melting point: 232 to 236 °C
–	–	O=C(/C(=C\c1ccccc1OCc1ccccc1)S(=O)(=O)Cc1ccc(F)cc1)c1ccc(Cl)cc1 [Example 402]	–	–	melting point: 139 to 145 °C
–	–	O=C(/C(=C\c1ccc(O)cc1)S(=O)(=O)Cc1ccc(F)cc1)c1ccc(Br)cc1 [Example 413]	–	–	melting point: 188 to 192 °C
–	–	COc1ccc(/C=C(\C(=O)c2ccc(Cl)cc2)S(=O)(=O)Cc2ccccc2Cl)cc1 [Example 363]	–	–	melting point: 195 to 210 °C
–	–	O=C(/C(=C\c1ccc(O)c([N+](=O)[O-])c1)S(=O)(=O)Cc1ccccc1Cl)c1ccc(Cl)cc1 [Example 362]	–	–	melting point: 222 to 226 °C
–	–	COc1ccc(CS(=O)(=O)/C(=C/c2c(OC)cc(OC)cc2OC)C(=O)c2ccc(OC)cc2)cc1 [Example 422, (E)-1-(4-methoxyphenyl)-2-(4-methoxybenzylsulfonyl)-3-(2,4,6-trimethoxyphenyl)-prop-2-en-1-one]	–	–	melting point: 60 to 62 °C
–	–	CN(C)c1ccc(/C=C(\C(=O)c2ccc(C(=O)O)cc2)S(=O)(=O)Cc2ccc(Cl)cc2)cc1 [Example 390]	–	–	melting point: 176 to 180 °C
–	–	Cc1ccc(/C=C(\C(=O)c2ccc(Br)cc2)S(=O)(=O)Cc2ccc(F)cc2)s1 [Example 416]	–	–	melting point: 156 to 161 °C
–	–	COc1ccccc1/C=C(\C(=O)c1ccc(Br)cc1)S(=O)(=O)Cc1ccc(F)cc1 [Example 404]	–	–	melting point: 145 to 151 °C
1 to 10 µM	1 to 10 µM	O=C(C(=Cc1ccc(F)c([N+](=O)[O-])c1)SCc1ccc(Br)cc1)c1ccc(C(=O)N2CCN(c3ccc(C(F)(F)F)cn3)CC2)cc1 [Example 315]	–	–	–
10 to 25 µM	10 to 25 µM	O=C(/C(=C\c1ccc(O)c([N+](=O)[O-])c1)SCc1ccc(Br)cc1)c1ccc([N+](=O)[O-])cc1 [Example 184]	–	–	–
1 to 10 µM	10 to 25 µM	O=C(C(=Cc1ccc(Cl)cc1)SCc1ccc(F)cc1)c1ccc(Cl)cc1 [Example 256]	–	–	–
–	–	O=C(C(=Cc1ccc(O)cc1O)Sc1ccccc1Br)c1ccc(Br)cc1 [Example 6]	50 to 100 µM	50 to 100 µM	–
–	–	Cc1ccc(SC(=Cc2ccc(Oc3ccccc3)cc2)C(=O)c2ccc(Cl)cc2)cc1 [Example 104]	10 to 25 µM	10 to 25 µM	–

IC50 [1, 5]	IC50 [2, 6]	SMILES	IC50 [1, 7]	IC50 [2, 8]	further results
1 to 10 µM	1 to 10 µM	CN(C)c1ccc(C=C(SCc2ccc(Cl)cc2)C(=O)c2ccc(C(=O)O)cc2)cc1 [Example 209]	–	–	–
1 to 10 µM	10 to 25 µM	Cc1ccc(CSC(=Cc2ccc(Cl)cc2)C(=O)c2ccc(Cl)cc2)cc1 [Example 288]	–	–	–
50 to 100 µM	50 to 100 µM	Cc1ccsc1C=C(SCc1ccc(Cl)cc1)C(=O)c1ccc(Cl)cc1 [Example 206]	–	–	–
10 to 25 µM	10 to 25 µM	O=C(/C(=C\c1ccc(O)c([N+](=O)[O-])c1)SCc1ccc(Br)cc1)c1c(F)c(F)c(F)c(F)c1F [Example 175]	–	–	–
1 to 10 µM	10 to 25 µM	COc1ccc(/C=C(/SCc2ccc(OC)cc2)C(=O)c2ccc(Cl)cc2)cc1 [Example 346]	–	–	–
25 to 50 µM	25 to 50 µM	Cc1ccc(CSC(=Cc2cccc(Cl)c2Cl)C(=O)c2ccc(Cl)cc2)cc1 [Example 271]	–	–	–
> 100 µM	> 100 µM	O=C(C(=Cc1ccc(F)cc1)SCc1ccc(Br)cc1)c1ccc(SCc2ccc(Br)cc2)c([N+](=O)[O-])c1 [Example 319]	–	–	–
–	–	O=C(O)c1ccc(C(=O)/C(=C\c2ccc(Cl)c([N+](=O)[O-])c2)S(=O)(=O)Cc2ccc(Br)cc2)cc1 [Example 372]	–	–	IC50 [1, 3]: 25 to 50 µM; IC50 [2, 4]: 25 to 50 µM
–	–	O=C(C(=Cc1ccc(O)c([N+](=O)[O-])c1)Sc1ccc(Br)cc1)c1c(F)c(F)c(F)c(F)c1F [Example 42]	1 to 10 µM	1 to 10 µM	–
–	–	COc1ccc(C=C(Sc2ccc(F)cc2)C(=O)c2ccc(OC)cc2)cc1 [Example 59]	1 to 10 µM	25 to 50 µM	–
–	–	O=C(C(=Cc1c(O)cc(O)cc1O)Sc1ccc(Br)cc1)c1ccc(Cl)cc1 [Example 13]	50 to 100 µM	25 to 50 µM	–
–	–	O=C(O)c1ccc(C(=O)C(=Cc2ccc(F)c([N+](=O)[O-])c2)Sc2c(F)c(F)c(F)c(F)c2F)cc1 [Example 112]	≤ 1 µM	1 to 10 µM	–
–	–	COc1cc(OC)c(C=C(Sc2ccc(C)cc2)C(=O)c2ccc(Cl)cc2)c(OC)c1 [Example 70]	25 to 50 µM	> 100 µM	–
≤ 1 µM	1 to 10 µM	O=C(O)c1ccc(C(=O)/C(=C\c2ccc(F)c([N+](=O)[O-])c2)SCc2ccccc2)cc1 [Example 353]	–	–	–
–	–	O=C(C(=Cc1ccc(Br)cc1)Sc1ccccc1Br)c1ccc(Br)cc1 [Example 9]	1 to 10 µM	1 to 10 µM	–
–	–	O=C(C(=Cc1c(O)cc(O)cc1O)Sc1ccccc1Br)c1ccc(Br)cc1 [Example 4]	> 100 µM	> 100 µM	–
–	–	Cc1ccc(SC(=Cc2ccc(Cl)cc2)C(=O)c2ccc(Br)cc2)cc1 [Example 90]	1 to 10 µM	10 to 25 µM	–
–	–	O=C(C(=Cc1ccc(Oc2ccccc2)cc1)Sc1ccc(Br)cc1)c1ccc(Br)cc1 [Example 50]	50 to 100 µM	50 to 100 µM	–
–	–	COc1ccc(SC(=Cc2ccc(C)s2)C(=O)c2ccc(Cl)cc2)cc1 [Example 64]	50 to 100 µM	50 to 100 µM	–

IC50 [1, 5]	IC50 [2, 6]	SMILES	IC50 [1, 7]	IC50 [2, 8]	further results
10 to 25 µM	25 to 50 µM	Cc1ccc(CSC(=Cc2ccc(F)c(C)c2)C(=O)c2ccc(Cl)cc2)cc1 [Example 291]	–	–	–
–	–	Cc1ccc(/C=C(\C(=O)c2ccc(Cl)cc2)S(=O)(=O)Cc2ccc(F)cc2)s1 [Example 417]	–	–	melting point: 116 to 120 °C
> 100 µM	> 100 µM	CSc1ccc(C=C(SCc2ccc(Cl)cc2)C(=O)c2ccc(C(=O)O)cc2)cc1 [Example 223]	–	–	–
–	–	O=C(C(=Cc1ccc(F)cc1Cl)Sc1ccc(Br)cc1)c1ccc(Br)cc1 [Example 22]	1 to 10 µM	1 to 10 µM	–
1 to 10 µM	1 to 10 µM	O=C(C(=Cc1ccc([N+](=O)[O-])cc1)SCc1ccc(Br)cc1)c1ccc(Br)cc1 [Example 320]	–	–	–
≤ 1 µM	1 to 10 µM	Cc1ccc(CS/C(=C/c2ccc(F)c([N+](=O)[O-])c2)C(=O)c2ccc(C(=O)O)cc2)cc1 [Example 347]	–	–	–
10 to 25 µM	1 to 10 µM	COc1ccccc1C=C(SCc1ccc(Cl)cc1)C(=O)c1ccc(Br)cc1 [Example 198]	–	–	–
10 to 25 µM	10 to 25 µM	COc1cc(OC)c(OC)cc1C=C(SCc1ccc(Br)cc1)C(=O)c1ccc([N+](=O)[O-])cc1 [Example 305]	–	–	–
–	–	Cc1ccc(SC(=Cc2cc(C)cc(C)c2)C(=O)c2ccc(Cl)cc2)cc1 [Example 78]	25 to 50 µM	50 to 100 µM	–
1 to 10 µM	1 to 10 µM	O=C(NCCN1CCOCC1)c1ccc(C(=O)C(=Cc2ccc(F)c([N+](=O)[O-])c2)SCc2ccc(Br)cc2)cc1 [Example 312]	–	–	–
–	–	Cc1ccc(SC(=Cc2c[nH]c3ccccc23)C(=O)c2ccc(Br)cc2)cc1 [Example 80]	10 to 25 µM	10 to 25 µM	–
–	–	O=C(C(=Cc1ccc(Br)cc1)Sc1ccc(Br)cc1)c1ccc(Br)cc1 [Example 35]	1 to 10 µM	1 to 10 µM	–
1 to 10 µM	10 to 25 µM	COc1ccc(CS/C(=C/c2ccc(F)cc2)C(=O)c2ccc(Cl)cc2)cc1 [Example 345]	–	–	–
≤ 1 µM	1 to 10 µM	O=C(/C(=C\c1ccc(F)c([N+](=O)[O-])c1)SCc1ccc(F)cc1)c1ccc(F)cc1 [Example 341]	–	–	–
50 to 100 µM	50 to 100 µM	Cc1ccc(C=C(SCc2ccc(Cl)cc2)C(=O)c2ccc(Cl)cc2)s1 [Example 230]	–	–	–
> 100 µM	> 100 µM	O=C(C(=Cc1c(O)cc(O)cc1O)SCc1ccc(Cl)cc1)c1ccc(Cl)cc1 [Example 192]	–	–	–
–	–	COc1ccc(/C=C(\C(=O)c2ccc(Br)cc2)S(=O)(=O)Cc2ccc(F)cc2)cc1 [Example 415]	–	–	melting point: 121 to 123 °C
–	–	COc1ccc(SC(=Cc2ccccc2OCc2ccccc2)C(=O)c2ccc(Cl)cc2)cc1 [Example 62]	1 to 10 µM	1 to 10 µM	–
